One series deals with Tetranychus urticae. Briefly: Tetranychus urticae spray test, OP-resistant (TETRUR). The settings on record: application rate of 500 g/ha, after 6 days. In kind it is in vivo. The procedure, abridged:
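Bean leaf discs infested with all stages of an OP-resistant Tetranychus urticae strain sprayed with compound in acetone/DMF with alkylaryl polyglycol ether emulsifier, diluted in water. Efficacy in % scored after 6 days; 100% means all mites killed.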

Series [1] can be described thus: log P by HPLC (OECD Guideline 117), method [b] neutral range. In kind it is physicochemical. The settings on record: HPLC; for logP[b]: method [b] neutral range. How it is done: (§1) The log P values were determined analogously to OECD Guideline 117 (EC Directive 92/69/EEC) by HPLC (high-performance liquid chromatography) using reversed-phase columns (C 18), by the following methods:
[b] The LC-MS determination in the neutral range is effected at pH 7.8 with 0.001 molar aqueous ammonium hydrogencarbonate solution and acetonitrile as eluents; linear gradient from 10% acetonitrile to 95% acetonitrile.

The nature of series [2]: log P by HPLC (OECD Guideline 117), method [a] acidic range. In kind it is physicochemical. The note with it: for logP[a]: HPLC, method [a] acidic range; for chromatographic logP: reversed-phase C18 HPLC column, acidic range. How it is done: as §1
[a] The LC-MS determination in the acidic range is effected at pH 2.7 with 0.1% aqueous formic acid and acetonitrile (contains 0.1% formic acid) as eluents; linear gradient from 10% acetonitrile to 95% acetonitrile.

The subject of a further series is Meloidogyne incognita. Description: Meloidogyne incognita test (MELGIN). In kind it is in vivo. The note with it: application rate of 20 ppm; after 14 days, by formation of galls. How it is done:
Meloidogyne Incognita Test (MELGIN)
• Solvent: 125.0 parts by weight of acetone
To produce an appropriate active ingredient formulation, 1 part by weight of active ingredient is mixed with the specified amounts of solvent and the concentrate is diluted to the desired concentration with water.
Vessels are filled with sand, active ingredient solution, an egg/larvae suspension of the southern root-knot nematode (Meloidogyne incognita) and lettuce seeds. The lettuce seeds germinate and the plants develop. The galls develop on the roots
After 14 days, the nematicidal efficacy in % is determined by the formation of galls. 100% means that no galls have been found; 0% means that the number of galls on the treated plants corresponds to the untreated control.

The next series deals with Boophilus microplus. Briefly: Boophilus microplus injection test (BOOPMI Inj). In kind it is in vivo. The note with it: application rate of 20 μg/animal, assessed after 7 days by laying of fertile eggs. How it is done:
Use Examples Boophilus microplus Injection Test (BOOPMI Inj) • Solvent: dimethyl sulphoxide
To prepare an appropriate active ingredient formulation, 10 mg of active ingredient are mixed with 0.5 ml of solvent and the concentrate is diluted with solvent to the desired concentration.
1 μl of the active ingredient solution is injected into the abdomen of 5 engorged adult female cattle ticks (Boophilus microplus). The animals are transferred into dishes and kept in a climate-controlled room.
The efficacy is assessed after 7 days by laying of fertile eggs. Eggs which are not visibly fertile are stored in a climate-controlled cabinet until the larvae hatch after about 42 days.
An efficacy of 100% means that none of the ticks has laid any fertile eggs; 0% means that all the eggs are fertile.

In a further series the test system is Phaedon cochleariae. Description: Phaedon cochleariae spray test (PHAECO). The settings on record: application rate of 500 g/ha, after 7 days. In kind it is in vivo. Here is the method:
Phaedon cochleariae—Spray Test (PHAECO)
• Solvent: 78.0 parts by weight of acetone • 1.5 parts by weight of dimethylformamide • Emulsifier: 0.5 part by weight of alkylaryl polyglycol ether
To produce an appropriate active ingredient formulation, 1 part by weight of active ingredient is mixed with the specified amounts of solvent and emulsifier, and the concentrate is diluted to the desired concentration with emulsifier-containing water.
Discs of Chinese cabbage leaves (Brassica pekinensis) are sprayed with an active ingredient formulation of the desired concentration and, after drying, populated with larvae of the mustard beetle (Phaedon cochleariae).
After 7 days, the efficacy in % is determined 100% means that all beetle larvae have been killed; 0% means that none of the beetle larvae have been killed.

For `Cc1cc(F)c(-n2nc(OCC(C)(C)C)n(C)c2=O)cc1SCC(F)(F)F` [Example 150], in the series with Tetranychus urticae, the efficacy is reported as 100%. Moreover, the “logP[b]” value in series [1] came to 4.29. For the same compound, the “logP[a]” value in series [2] was 4.35. The compound further displayed a nematicidal efficacy in the series on Meloidogyne incognita of 90%.
For the compound `Cc1cc(F)c(-n2ncn(C3CC3)c2=O)cc1SCC(F)(F)F` [Example 61], in the series with Tetranychus urticae, the efficacy stood at 100%. For the same compound, the “logP[b]” value in series [1] is given as 2.59. Also, the “logP[a]” value in series [2] was 2.62. This compound also showed a nematicidal efficacy in the series with Meloidogyne incognita of 100%.
For the compound `Cc1cc(F)c(N2CC(OCc3ccccc3)=CC2=O)cc1[S+]([O-])CC(F)(F)F` (stereo not shown) [Example 323], the “logP[b]” value in series [1] is listed as 2.81. Moreover, the “logP[a]” value in series [2] is reported as 2.87. The same compound had a nematicidal efficacy with Meloidogyne incognita of 90%.
As for `Cc1cc(F)c(-n2nnn(CC(F)(F)F)c2=O)cc1SCC(F)(F)F` [Example 304], the efficacy in the series with Tetranychus urticae is reported as 100%. The “logP[b]” value in series [1] turned out to be 3.48. Besides, the “logP[a]” value in series [2] was 3.61. For the same compound, the nematicidal efficacy with Meloidogyne incognita is 100%.
With `COc1nn(-c2cc(SCC(F)(F)F)c(C)cc2F)c(=O)n1CC1CC1` [Example 390], the efficacy with Tetranychus urticae, in the series on Boophilus microplus and in the series with Phaedon cochleariae was 100% in each case. Moreover, the “logP[b]” value in series [1] came to 3.58. The “logP[a]” value in series [2] is on record as 3.64.
Regarding `COc1nn(-c2ccc(Br)c(SCC(F)(F)F)c2)c(=O)n1C1CC1` [Example 111], the “logP[b]” value in series [1] is given as 3.93. Further, the “logP[a]” value in series [2] came out at 4.01. In the series on Meloidogyne incognita, this compound displayed a nematicidal efficacy of 100%.
Turning to `COc1nn(-c2ccc(Cl)c(SCC(F)(F)F)c2)c(=O)n1C1CC1` [Example 108], the “logP[b]” value in series [1] is 3.84. The “logP[a]” value in series [2] was 3.91. In the series on Meloidogyne incognita, this compound had a nematicidal efficacy of 90%.
In the series with Tetranychus urticae, `Cc1cc(F)c(-n2nnn(CC(F)(F)C(F)(F)F)c2=O)cc1[S+]([O-])CC(F)(F)F` (racemic) [Example 446] showed an efficacy of 90%. Besides, the “logP[b]” value in series [1] amounted to 3.01. Further, the “logP[a]” value in series [2] stood at 3.05. In the series with Meloidogyne incognita, this compound returned a nematicidal efficacy of 100%.
As to `Cc1cc(F)c(-n2nc(OCC(Cl)(Cl)Cl)n(C)c2=O)cc1[S+]([O-])CC(F)(F)F` (stereo not shown) [Example 392], the efficacy is given as 90% in the series with Tetranychus urticae, 100% with Boophilus microplus and 100% in the series on Phaedon cochleariae. Further, the “logP[b]” value in series [1] is reported as 3.09. Further, the “logP[a]” value in series [2] amounted to 3.13.
Take `COc1nn(-c2ccc(Br)c([S+]([O-])CC(F)(F)F)c2)c(=O)n1C1CC1` (stereo not shown) [Example 110]: in series [1], the “logP[b]” value is recorded as 2.95. For the same compound, in series [2], the “logP[a]” value turned out to be 3.00. The compound further displayed a nematicidal efficacy with Meloidogyne incognita of 100%.
On the same counts, the results for `C=C(C)CCOc1nn(-c2ccc(C)c(SCC(F)(F)F)c2)c(=O)n1C1CC1` [Example 138] are 4.96, 5.01 and 90%.
On the same counts, the results for `Cc1ccc(-n2nc(OCC3CC3)n(C3CC3)c2=O)cc1SCC(F)(F)F` [Example 135] are 4.56, 4.60 and 90%.
On to `CC(CC(C)C)=Nn1c(C)nn(-c2cc(SCC(F)(F)F)c(C)cc2F)c1=O` [Example 202], for which the efficacy in the series on Tetranychus urticae stood at 100%. Further, the “logP[b]” value in series [1] was found to be 3.98. Further, the “logP[a]” value in series [2] was determined as 4.06. For the same compound, in the series with Meloidogyne incognita, the nematicidal efficacy is listed as 100%.
Take `COC1=CC(=O)N(c2ccc(C(F)(F)F)c([S+]([O-])CC(F)(F)F)c2)C1` (stereo not shown) [Example 321]: the “logP[b]” value in series [1] is reported as 2.55. Moreover, the “logP[a]” value in series [2] worked out at 2.61. The efficacy in the series with Boophilus microplus and with Phaedon cochleariae was 100% in each case.
Take `Cc1cc(F)c(-n2nc(C(F)(F)F)n(N(C)C)c2=O)cc1SCC(F)(F)F` [Example 214]: the “logP[b]” value in series [1] turned out to be 4.15. Besides, the “logP[a]” value in series [2] is on record as 4.24. For the same compound, the nematicidal efficacy in the series with Meloidogyne incognita is given as 90%.
Consider `Cc1cc(F)c(-n2nc(Cl)n(C)c2=O)cc1[S+]([O-])CC(F)(F)F` (stereo not shown) [Example 437], for which the efficacy with Tetranychus urticae came to 90%; in the series with Phaedon cochleariae, 83%. Further, the “logP[b]” value in series [1] was determined as 1.98. For the same compound, the “logP[a]” value in series [2] is listed as 2.00.
On the same counts, the results for `CCN(CC)c1nn(-c2cc([S+]([O-])CC(F)(F)F)c(C)cc2F)c(=O)n1N` (stereo not shown) [Example 223] are 90%, 100%, 2.18 and 2.23.
For the compound `Cc1cc(F)c(-n2nc(C)n(N)c2=O)cc1[S+]([O-])CC(F)(F)F` (stereo not shown) [Example 209], the efficacy in the series with Tetranychus urticae stood at 100%; in the series on Phaedon cochleariae, 83%. The “logP[b]” value in series [1] is reported as 1.34. For the same compound, the “logP[a]” value in series [2] came out at 1.36.
On the same counts, the results for `Cc1cc(F)c(-n2nc(OCC(Cl)(Cl)Cl)n(C)c2=O)cc1SCC(F)(F)F` [Example 376] are 100%, 100%, 4.18 and 4.23.
Take `C=CCn1c(OC)nn(-c2ccc(C)c([S+]([O-])CC(F)(F)F)c2)c1=O` (stereo not shown) [Example 179]: the efficacy amounted to 90% in the series with Tetranychus urticae and 100% with Phaedon cochleariae. In addition, the “logP[b]” value in series [1] is 2.57. In addition, the “logP[a]” value in series [2] is 2.61.
On to `Cc1cc(F)c(N2CC(OC3CCCC3)=CC2=O)cc1[S+]([O-])CC(F)(F)F` (stereo not shown) [Example 336, 4-(Cyclopentyloxy)-1-{2-fluoro-4-methyl-5-[(2,2,2-trifluoroethyl)sulphinyl]phenyl}-1,5-dihydro-2H-pyrrol-2-one], for which the pest or weed control at 500 g/ha in the series with Tetranychus urticae (Tetranychus urticae, 144 h, read-out: efficacy) turned out to be 90%; with Phaedon cochleariae (Phaedon cochleariae, 168 h, read-out: efficacy), 83%. For the same compound, the chromatographic logP in series [1] (reversed-phase C18 HPLC column, neutral range, pH 7.8) was determined as 2.91; in series [2] (pH 2.7, HPLC method [a], read-out: logP[a]), 2.97; in series [2] (pH 2.7, HPLC, pH 2.7, read-out: log P[a]) it was 2.97.
On to `CC(C)(C)COc1nn(-c2cc(SCC(F)(F)F)c(Cl)cc2F)c(=O)n1C1CC1` [Example 394], for which the efficacy with Tetranychus urticae was 100%; with Phaedon cochleariae it was 83%. Also, the “logP[b]” value in series [1] amounted to 4.89. The “logP[a]” value in series [2] was 4.95.
`COc1nn(-c2ccc(C#N)c([S+]([O-])CC(F)(F)F)c2)c(=O)n1C1CC1` (stereo not shown) [Example 118]: the “logP[b]” value in series [1] was determined as 2.43. Further, in series [2], the “logP[a]” value was determined as 2.47. Besides, the nematicidal efficacy with Meloidogyne incognita was determined as 100%.
On the same counts, the results for `Cc1ccc(-n2nc(OCC3CC3)n(C)c2=O)cc1SCC(F)(F)F` [Example 145] are 4.19, 4.20 and 100%.
As to `Cc1cc(F)c(-n2nc(Cl)n(C)c2=O)cc1SCC(F)(F)F` [Example 435], the efficacy with Tetranychus urticae is 100%; in the series on Phaedon cochleariae it was 83%. Besides, the “logP[b]” value in series [1] worked out at 3.04. For the same compound, the “logP[a]” value in series [2] came out at 3.07.
Regarding `C=C(C)CCOc1nn(-c2ccc(C)c([S+]([O-])CC(F)(F)F)c2)c(=O)n1C1CC1` (stereo not shown) [Example 139], the “logP[b]” value in series [1] was found to be 3.60. Besides, the “logP[a]” value in series [2] was 3.67. In the series on Meloidogyne incognita, the nematicidal efficacy is 90%.
For `COc1nn(-c2cc(SCC(F)(F)F)c(Cl)cc2Cl)c(=O)n1C1CC1` [Example 107] the same measures were 3.42, 3.46 and 90%.
On the same counts, the results for `CCC(C)Oc1nn(-c2ccc(C)c(SCC(F)(F)F)c2)c(=O)n1C1CC1` (stereo not shown) [Example 142] are 4.96, 5.01 and 90%.

Source of the values: patent US9981940B2, “Aryl sulfide derivatives and aryl sulfoxide derivatives as acaricides and insecticides” (BAYER CROPSCIENCE AKTIENGESELLSCHAFT, priority 2013, dated 2018).
